Measured values: patent US8293705B2, “HCV protease inhibitors and uses thereof” (Avila Therapeutics, Inc., priority 2007, dated 2012)
Values joined by “and” are separate entries in the source; they are usually repeats but may differ in a detail not shown here. Identical values can stand only once.

Tests used:
[1] = target: T1, NS3 protease self-cleavage in Huh-7-Luc-Neo-ET replicon cells (Hepatitis C virus genotype 1b, UniProt Q9WMX2, E1202G/T1280I); assay: Inhibition of protease self cleavage in replicon cells (washout); assay type: cell-based; conditions: 16 hours incubation, then removed
T1 construct: blotted with polyclonal anti NS3 antibody (Bioenza, Calif.)
Method: Huh-7-Luc-Neo-ET cells were plated in Replicon Assay Medium (RPMI supplemented with 5% FBS, 1× non-essential amino acids and pen/strep) at a density of 1×10^5 cells/well in 12 well plates. Eight hours later the media was removed and replaced with 1 ml media containing test compound (5 wells per compound) and 0.02% DMSO and the cells were returned to the incubator overnight. Sixteen hours later 1 well from each compound and 1 untreated well were washed with PBS, then lysed and scraped into 30 ul of Cell Extraction Buffer (Biosource, Camarillo, Calif.) plus Complete Protease Inhibitor (Roche, Indianapolis, Ind.). The remaining wells were rinsed 2× with PBS then fed with Replicon Media and returned to the incubator. […]
Cell lysates were separated by SDS-Page (4-20%) and transferred to Immobilon-P PVDF membrane (Millipore Corporation, MA) and blotted with polyclonal anti NS3 antibody (Bioenza, Calif.). Blots were scanned on an Odyssey infrared scanner from Licor and the FL band and cleavage products were quantified separately using the Licor software provided with the scanner. The cleavage product was calculated as a percentage of the total NS3 in each sample and then normalized to the DMSO control so that the DMSO control reflects 100% activity.

[2] = tested on: HCV RNA replicon in cell line ET (luc-ubi-neo/ET), human Huh7 hepatoma; assay: HCV RNA replicon assay, Example 14 Method A; assay type: cell-based; conditions: Hepatitis C virus, Huh-7, assay of Example 14, 72 hr; for IC50: read-out: Inhibition, Replicon (IC50); for IC90: read-out: Inhibition, Replicon, IC90 value
Method: The compounds were assayed to evaluate the antiviral activity and cytotoxicity of compounds in vitro using HCV RNA replicons. This assay used the cell line ET (luc-ubi-neo/ET), which is a human Huh7 hepatoma cell line that contains an HCV RNA replicon with a stable luciferase (Luc) reporter and three cell culture-adaptive mutations. […]
The ET cell line was grown in Dulbecco's modified essential media (DMEM), 10% fetal bovine serum (FBS), 1% penicillin-streptomycin (pen-strep), 1% glutamine, 250 μg/mL G418 in a 5% CO2 incubator at 37° C. All cell culture reagents were obtained from Mediatech (Manassas, Va.). Cells were trypsinized (1% trypsin:EDTA) and plated out at 5×10^3 cells/well in white 96-well assay plates (Costar) dedicated to cell number (cytotoxicity) or antiviral activity assessments. Drugs were added at six 3-fold concentrations each and the assay was run in DMEM, 5% FBS, 1% pen-strep, 1% glutamine. Human interferon alpha-2b (PBL Biolabs, New Brunswick, N.J.) was included in each run as a positive control compound. Cells were processed 72 hr post drug addition when the cells are still subconfluent. Antiviral activity was measured by analyzing replicon-derived luciferase activity using the Steady-Glo Luciferase Assay System (Promega, Madison, Wis.) according to manufacturer's instruction. The number of cells in each well was determined by CytoTox-1 reagent (Promega). Compound profile was derived by calculating applicable EC50 (effective concentration inhibiting virus replication by 50%), EC90 (effective concentration inhibiting virus replication by 90%), IC50 (concentration decreasing cell viability by 50%) and SI50 (selective index: […]) values.

HCV NS3/4A wild type = target: T2, HCV NS3/4A wild type (Hepatitis C virus genotype 1b, UniProt Q9WMX2); assay: Mass spectrometric analysis of covalent modification (MALDI-TOF); assay type: binding; conditions: 10× excess of test compound to protein; MALDI-TOF
T2 construct: HCV NS3/4A wild type (wt) was incubated for 1 hr at a 10× fold access of test compound to protein; purchased Bioenza, Calif
Method: Mass spectrometric analysis of HCV wild type or HCV variant C159S in the presence of test compound is performed. 100 pmols of HCV wild type (Bioenza, Calif.) is incubated with test compound for 1 hr and 3 hrs at 10-fold access of test compound to protein. 1 ul aliquots of the samples (total volume of 4.24 ul) are diluted with 10 ul of 0.1% TFA prior to micro C4 ZipTipping directly onto the MALDI target using Sinapinic acid as the desorption matrix (10 mg/mL in 0.1% TFA:Acetonitrile 50:50). Analyses are performed on a Shimadzu Biotech Axima TOF2 (Shimadzu Instruments) matrix-assisted-laser desorption/ionization Time-of-Flight (MALDI-TOF) mass spectrometer. The same procedure is carried out on 100 pmols of HCV C159S mutant of HCV protease for 3 hrs at 10-fold excess of test compound to protein.
As depicted in FIGS. 1 and 2, mass spectrometric analysis of HCV wild type in the presence of test compounds I-1 and I-25 was performed using the following protocol: HCV NS3/4A wild type (wt) was incubated for 1 hr at a 10× fold access of test compound to protein. 2 ul aliquots of the samples were diluted with 10 ul of 0.1% TFA prior to micro C4 ZipTipping directly onto the MALDI target using Sinapinic acid as the desorption matrix (10 mg/ml in 0.1% TFA:Acetonitrile 50:50). For intact protein mass measurement the instrument was set in linear mode using a pulsed extraction setting of 24,500 and apomyoglobin as the standard to calibrate the instrument.

[3] = target: T3, HCV NS3/4A 1b protease wild type (Hepatitis C virus genotype 1b, UniProt Q9WMX2); assay: HCV protease FRET assay (IC50_APP), Example 16; assay type: biochemical
T3 construct: 10× stocks of NS3/4A protease enzyme from Bioenza (Mountain View, Calif.); purchased Bioenza (Mountain View, Calif.)

[4] = target: T4, HCV NS3/4A 1b protease D168A (Hepatitis C virus genotype 1b, UniProt Q9WMX2, D1194A); assay: HCV protease FRET assay (IC50_APP), Example 16; assay type: biochemical
T4 construct: 10× stocks of NS3/4A protease enzyme from Bioenza (Mountain View, Calif.); purchased Bioenza (Mountain View, Calif.)

[5] = target: T5, HCV NS3/4A 1b protease A156T (Hepatitis C virus genotype 1b, UniProt Q9WMX2, A1182T); assay: HCV protease FRET assay (IC50_APP), Example 16; assay type: biochemical
T5 construct: 10× stocks of NS3/4A protease enzyme from Bioenza (Mountain View, Calif.); purchased Bioenza (Mountain View, Calif.)

HCV NS3/4A D168A = HCV NS3/4A D168A (Hepatitis C virus genotype 1b, UniProt Q9WMX2, D1194A); assay: Mass spectrometric analysis of covalent modification; assay type: binding; conditions: methods described in Example 18
Method: HCV is incubated with test compound for 3 hrs prior to tryptic digestion. Todoacetamide is used as the alkylating agent after compound incubation. For tryptic digests a 2 ul aliquot (0.06 ug/ul) is diluted with 10 ul of 0.1% TFA prior to micro C18 Zip Tipping directly onto the MALDI target using alpha cyano-4-hydroxy cinnamic acid as the matrix (5 mg/mL in 0.1% TFA:Acetonitrile 50:50).
For tryptic digests the instrument is set in Reflectron mode with a pulsed extraction setting of 1800. Calibration is done using the Laser Biolabs Pep Mix standard (1046.54, 1296.69, 1672.92, 2093.09, 2465.20). For CID/PSD analysis the peptide is selected using cursors to set ion gate timing and fragmentation occurred at a laser power about 20% higher and He is used as the collision gas for CID. Calibration for fragments is done using the P14R fragmentation calibration for the Curved field Reflectron.
As depicted in FIGS. 4, 5, 6, and 7, mass spectrometric analysis of HCV mutants in the presence of compound I-11 was performed. […] 2 ul aliquots of the samples were diluted with 10 ul of 0.1% TFA prior to micro C4 ZipTipping directly onto the MALDI target using Sinapinic acid as the desorption matrix (10 mg/ml in 0.1% TFA:Acetonitrile 50:50). […]

[6] = target: T3, HCV NS3/4A 1b protease wild type; assay: HCV protease FRET assay (IC50), Example 15; assay type: biochemical
Method: (§1) The following protocol was used to generate IC50 values as depicted for compound 239 in Table 4, above. The protocol is a modified FRET-based assay (v—02) from In Vitro Resistance Studies of HCV Serine Protease Inhibitors, 2004, JBC, vol. 279, No. 17, pp 17508-17514.
(§2) 10× stocks of NS3/4A protease enzyme from Bioenza (Mountain View, Calif.) and 1.13× 5-FAM/QXL™520 FRET peptide substrate from Anaspec (San Jose, Calif.) were prepared in 50 mM HEPES, pH 7.8, 100 mM NaCl, 5 mM DTT and 20% glycerol. 5 μL of each enzyme were pre-incubated in a Corning (#3573) 384-well, black, non-treated microtiter plate (Corning, N.Y.) for 30 min at 25° C. with a 0.5 μL volume of 50% DMSO and serially diluted compounds prepared in 50% DMSO. Protease reactions were started with the addition of 45 μL of the FRET substrate and monitored for 120 minutes at λex487/λem514 through Quad^4 monochromoters in a Synergy^4 plate reader from BioTek (Winooski, Vt.). At the conclusion of each assay, progress curves from each well were examined for linear reaction kinetics and fit statistics (R^2, absolute sum of squares). Initial velocity (0 minutes to 30+ minutes) from each reaction was determined from the slope of a plot of relative fluorescence units vs time (minutes) and then plotted against inhibitor concentration to estimate IC50 from log [Inhibitor] vs Response, Variable Slope model in GraphPad Prism from GraphPad Software (San Diego, Calif.).
(§3) The compound numbers correspond to the compound numbers in Table 3. […] ;

[7] = target: T4, HCV NS3/4A 1b protease D168A; assay: HCV protease FRET assay (IC50), Example 15; assay type: biochemical; conditions: Inhibition (IC50), HCV D168A, FRET, 30 min pre-incubation at 25° C.
Method: as §1, §2, §3

[8] = target: T5, HCV NS3/4A 1b protease A156T; assay: HCV protease FRET assay (IC50), Example 15; assay type: biochemical; conditions: Inhibition (IC50), HCV A156T, FRET, 30 min pre-incubation at 25° C.
Method: as §1, §2, §3

## CCC[C@H](NC(=O)[C@@H]1[C@H]2CCC[C@H]2CN1C(=O)[C@@H](NC(=O)[C@@H](NC(=O)c1cnccn1)C1CCCCC1)C(C)(C)C)C(=O)C(=O)NC1CC1 [VX-950]
[1]
  Time to virtually complete return of NS3 self-cleaving activity after drug removal: 4 h and 8 h

## C=CC(=O)O[C@H](C)[C@H](NC(=O)OC(C)(C)C)C(=O)N1C[C@H](OC(=O)N2Cc3cccc(F)c3C2)C[C@H]1C(=O)N[C@]1(C(=O)NS(=O)(=O)C2CC2)C[C@H]1C=C [Compound I-24, (3R,5S)-1-((2S,3R)-3-(acryloyloxy)-2-(tert-butoxycarbonylamino)butanoyl)-5-((1R,2S)-1-(cyclopropylsulfonylcarbamoyl)-2-vinylcyclopropylcarbamoyl)pyrrolidin-3-yl 4-fluoroisoindoline-2-carboxylate]
[2]
  IC50: 10 to 100 nM
  IC90: 100 to 1000 nM
HCV NS3/4A wild type
  Covalent modification of HCV NS3/4A wild type: measurable covalent modification
[3]
  IC50: < 10 nM
[4]
  IC50: < 10 nM
[5]
  IC50: < 10 nM
HCV NS3/4A D168A
  Covalent modification of HCV NS3/4A D168A: measurable covalent modification

## C=CC(=O)NC[C@H](NC(=O)OC1CCCC1)C(=O)N1C[C@H](OC(=O)N2Cc3cccc(F)c3C2)C[C@H]1C(=O)N[C@]1(C(=O)NS(=O)(=O)C2CC2)C[C@H]1C=C [Compound I-19, (3R,5S)-1-((S)-3-acrylamido-2-(cyclopentyloxycarbonylamino)propanoyl)-5-((1R,2S)-1-(cyclopropylsulfonylcarbamoyl)-2-vinylcyclopropylcarbamoyl)pyrrolidin-3-yl 4-fluoroisoindoline-2-carboxylate]
HCV NS3/4A wild type
  Covalent modification of HCV NS3/4A wild type: measurable covalent modification
[3]
  IC50: < 10 nM
[4]
  IC50: 10 to 100 nM
[5]
  IC50: < 10 nM
HCV NS3/4A D168A
  Covalent modification of HCV NS3/4A D168A: measurable covalent modification

## C=CC(=O)NCC(=O)N1C[C@H](OC(=O)N2Cc3cccc(F)c3C2)C[C@H]1C(=O)N[C@]1(C(=O)NS(=O)(=O)C2CC2)C[C@H]1C=C [Compound I-6, (3R,5S)-1-(2-acrylamidoacetyl)-5-((1R,2S)-1-(cyclopropylsulfonylcarbamoyl)-2-vinylcyclopropylcarbamoyl)pyrrolidin-3-yl 4-fluoroisoindoline-2-carboxylate]
[6]
  IC50: < 10 nM
[7]
  IC50: 10 to 100 nM
[8]
  IC50: < 10 nM
[2]
  IC50: 100 to 1000 nM
  IC90: 1000 to 10000 nM
HCV NS3/4A wild type
  Covalent modification of HCV NS3/4A wild type: measurable covalent modification
[3]
  IC50: < 10 nM
[4]
  IC50: 100 to 1000 nM
[5]
  IC50: < 10 nM

## C=C[C@@H]1C[C@]1(NC(=O)[C@@H]1C[C@@H](OC(=O)N2Cc3cccc(F)c3C2)CN1C(=O)CNC(=O)/C=C/C)C(=O)NS(=O)(=O)C1CC1 [Compound I-7, (3R,5S)-1-(2-(E)-but-2-enamidoacetyl)-5-((1R,2S)-1-(cyclopropylsulfonylcarbamoyl)-2-vinylcyclopropylcarbamoyl)pyrrolidin-3-yl-4-fluoroisoindoline-2-carboxylate]
[6]
  IC50: 10 to 100 nM
[7]
  IC50: 1000 to 10000 nM
[3]
  IC50: 100 to 1000 nM
[4]
  IC50: 1000 to 10000 nM
[5]
  IC50: 100 to 1000 nM
